Experimental data from patent US10544146B2, “Bicyclic compounds and their use as antibacterial agents and β-lactamase inhibitors” (priority 2011, dated 2020).

How the values were obtained:
Format in all cases: cell-based
[1] = system: K. pneumo JMI 2673; experiment: MIC, antibacterial and synergistic activity; settings: substance alone
[2] = system: K. pneumo JMI 2681; experiment: MIC, antibacterial and synergistic activity; settings: substance alone
[3] = system: K. pneumo JMI 2674; experiment: MIC, antibacterial and synergistic activity; settings: substance alone
[4] = system: E. coli JMI 2665; experiment: MIC, antibacterial and synergistic activity; settings: substance alone
[5] = system: E. coli JMI 4103; experiment: MIC, antibacterial and synergistic activity; settings: substance alone
[6] = system: K. pneumo JMI 4106; experiment: MIC, antibacterial and synergistic activity; settings: substance alone
[7] = system: K. pneumo JMI 4088; experiment: MIC, antibacterial and synergistic activity; settings: substance alone
[8] = system: E. coli JMI 4080; experiment: MIC, antibacterial and synergistic activity; settings: substance alone
[9] = system: E. coli JMI 10770; experiment: MIC, antibacterial and synergistic activity; settings: substance alone
[10] = system: E. coli JMI 11103; experiment: MIC, antibacterial and synergistic activity; settings: substance alone
[11] = system: P. aerug JMI 2686; experiment: MIC, antibacterial and synergistic activity; settings: substance alone
[12] = system: metallo β-lactamase producing bacteria; experiment: MIC in combination with various antibiotics against metallo β-lactamase producing bacteria (Tables 10-12); settings: substance alone
Method: (§1) In the Tables 10-12, compounds of the present invention were tested in combination with various antibiotics against metallo β-lactamase producing bacteria.

[13] = system: E. coli JMI 10768; experiment: MIC, antibacterial and synergistic activity; settings: substance alone
[14] = system: E. coli ATCC 25922; experiment: MIC, antibacterial and synergistic activity
Method: as §1

[15] = system: A. baumanii JMI 2659; experiment: MIC, antibacterial and synergistic activity; settings: substance alone
Method: as §1

[16] = system: K. pneumo JMI 2693; experiment: MIC, antibacterial and synergistic activity; settings: substance alone
Method: as §1

[17] = system: E. coli JMI 10767; experiment: MIC, antibacterial and synergistic activity; settings: substance alone
Method: as §1

[18] = system: P. aerug JMI 149; experiment: MIC, antibacterial and synergistic activity; settings: substance alone
Method: as §1

[19] = system: E. coli JMI 2692; experiment: MIC, antibacterial and synergistic activity; settings: substance alone
Method: as §1

[20] = system: K. pneumo JMI 2697; experiment: MIC, antibacterial and synergistic activity; settings: substance alone
Method: as §1

[21] = system: E. coli JMI 2671; experiment: MIC, antibacterial and synergistic activity; settings: substance alone
Method: as §1

[22] = system: E. cloacae JMI 36; experiment: MIC, antibacterial and synergistic activity; settings: substance alone
Method: as §1

[23] = system: K. pneumo JMI 2699; experiment: MIC, antibacterial and synergistic activity; settings: substance alone
Method: as §1

[24] = system: K. pneumo JMI 4109; experiment: MIC, antibacterial and synergistic activity; settings: substance alone

CC(C)(O/N=C(\C(=O)N[C@@H]1C(=O)N2C(C(=O)[O-])=C(C[n+]3ccccc3)CS[C@H]12)c1csc(N)n1)C(=O)O [Ceftazidime, ceftazidime]
MIC alone ([1]; K. pneumo JMI 2673, CTX-M14 (ESBL)): 32 µg/mL | MIC alone ([1]; K. pneumo JMI 2673, enzyme CTX-M14 (ESBL)): 32 µg/mL | MIC alone ([2]; K. pneumo JMI 2681, Oxa-48 (Cpase)): 512 µg/mL | MIC alone ([2]; K. pneumo JMI 2681, enzyme Oxa-48 (Cpase)): 512 µg/mL | MIC alone ([3]; K. pneumo JMI 2674, CTX-M15 (ESBL)): 512 µg/mL | MIC alone ([3]; K. pneumo JMI 2674, enzyme CTX-M15 (ESBL)): 512 µg/mL | MIC alone ([4]; E. coli JMI 2665, CMY-2 (Plasmid Cpase)): 8 µg/mL | MIC alone ([4]; E. coli JMI 2665, enzyme CMY-2 (Plasmid Cpase)): 8 µg/mL | MIC alone ([5]; E. coli JMI 4103, KPC-2, Tem-1, CMY-Type): >512 µg/mL | MIC alone ([5]; E. coli JMI 4103, enzyme KPC-2, Tem-1, CMY-Type): >512 µg/mL | MIC alone ([6]; K. pneumo JMI 4106, KPC-3, TEM-1, SHV-12, SHV-141): >512 µg/mL | MIC alone ([6]; K. pneumo JMI 4106, enzyme KPC-3, TEM-1, SHV-12, SHV-141): >512 µg/mL | MIC alone ([7]; K. pneumo JMI 4088, KPC-3 (Cpase)): >512 µg/mL | MIC alone ([7]; K. pneumo JMI 4088, enzyme KPC-3 (Cpase)): >512 µg/mL | MIC alone ([8]; E. coli JMI 4080, Tem-10): 64 µg/mL | MIC alone ([8]; E. coli JMI 4080, enzyme Tem-10): 64 µg/mL | MIC alone ([9]; E. coli JMI 10770, CTX-M15 (Hyper ESBL)): 64 µg/mL | MIC alone ([9]; E. coli JMI 10770, enzyme CTX-M15 (Hyper ESBL)): 64 µg/mL | MIC alone ([10]; E. coli JMI 11103, CTX-M15 (Intermediate ESBL)): 32 µg/mL | MIC alone ([10]; E. coli JMI 11103, enzyme CTX-M15 (Intermediate ESBL)): 32 µg/mL | MIC alone ([11]; P. aerug JMI 2686, KPC-2 (Cpase)): 512 µg/mL | MIC alone ([11]; P. aerug JMI 2686, enzyme KPC-2 (Cpase)): 512 µg/mL | MIC alone ([12]; Citrobacter freundii isolate 49469, NDM-1): >256 µg/mL | MIC alone ([12]; Enterobacter aerogenes isolate 8397, VIM-1): >256 µg/mL | MIC alone ([12]; Enterobacter aerogenes isolate 47683, VIM-12): 256 µg/mL | MIC alone ([12]; Enterobacter cloacae isolate 4, VIM-6): 256 µg/mL | MIC alone ([12]; Enterobacter cloacae isolate 10, IMP-26): >256 µg/mL | MIC alone ([12]; Enterobacter cloacae isolate 25, IMP-4): >256 µg/mL | MIC alone ([12]; Enterobacter cloacae isolate 1068, VIM-2): 128 µg/mL | MIC alone ([12]; Enterobacter cloacae isolate 1280, VIM-5): 64 µg/mL | MIC alone ([12]; Enterobacter cloacae isolate 1471, VIM-1): >256 µg/mL | MIC alone ([12]; Enterobacter cloacae isolate 1874, IMP-21): 32 µg/mL | MIC alone ([12]; Enterobacter cloacae isolate 3686, IMP-1): >256 µg/mL | MIC alone ([12]; Enterobacter cloacae isolate 53477, NDM-1): >256 µg/mL | MIC alone ([12]; Escherichia coli isolate 13, IMP-1): 256 µg/mL | MIC alone ([12]; Escherichia coli isolate 17, NDM-1): >256 µg/mL | MIC alone ([12]; Escherichia coli isolate 49, NDM-1): >256 µg/mL | MIC alone ([12]; Escherichia coli isolate 53749, NDM-1): >256 µg/mL | MIC alone ([12]; Klebsiella oxytoca isolate 24825, IMP-26): >256 µg/mL | MIC alone ([12]; Klebsiella oxytoca isolate 31141, VIM-23): 128 µg/mL | MIC alone ([12]; Klebsiella pneumoniae isolate 16, VIM-5): >256 µg/mL | MIC alone ([12]; Klebsiella pneumoniae isolate 38, NDM-1): >256 µg/mL | MIC alone ([12]; Providencia stuartii isolate 26582, VIM-1): >256 µg/mL | MIC alone ([12]; Serratia marcescens isolate 35, IMP-4): 64 µg/mL | MIC alone ([12]; Serratia marcescens isolate 36098, IMP-19): 128 µg/mL | MIC alone ([13]; E. coli JMI 10768, CTX-M15 (Weak ESBL)): 8 µg/mL | MIC alone ([13]; E. coli JMI 10768, enzyme CTX-M15 (Weak ESBL)): 8 µg/mL | MIC alone ([14]; E. coli ATCC 25922, enzyme Wt; substance alone): 0.25 µg/mL | MIC alone ([14]; E. coli ATCC 25922; enzyme Wt; substance alone): 0.25 µg/mL | MIC alone ([15]; A. baumanii JMI 2659, Ges-14 (Cpase)): 512 µg/mL | MIC alone ([15]; A. baumanii JMI 2659, enzyme Ges-14 (Cpase)): 512 µg/mL | MIC alone ([16]; K. pneumo JMI 2693, NDM-1 (Cpase)): >512 µg/mL | MIC alone ([16]; K. pneumo JMI 2693, enzyme NDM-1 (Cpase)): >512 µg/mL | MIC alone ([17]; E. coli JMI 10767, Wt): ≤1 µg/mL | MIC alone ([17]; E. coli JMI 10767, enzyme Wt): ≤1 µg/mL | MIC alone ([18]; P. aerug JMI 149, Bla+++D+): 256 µg/mL | MIC alone ([18]; P. aerug JMI 149, enzyme Bla+++D+): 256 µg/mL | MIC alone ([19]; E. coli JMI 2692, NDM-1, TEM-1, CTX-M-15): >512 µg/mL | MIC alone ([19]; E. coli JMI 2692, enzyme NDM-1, TEM-1, CTX-M-15): >512 µg/mL | MIC alone ([20]; K. pneumo JMI 2697, IMP-4 (Cpase)): >512 µg/mL | MIC alone ([20]; K. pneumo JMI 2697, enzyme IMP-4 (Cpase)): >512 µg/mL | MIC alone ([21]; E. coli JMI 2671, VIM-19 (Cpase)): 64 µg/mL | MIC alone ([21]; E. coli JMI 2671, enzyme VIM-19 (Cpase)): 64 µg/mL | MIC alone ([22]; E. cloacae JMI 36, P99): 128 µg/mL | MIC alone ([22]; E. cloacae JMI 36, enzyme P99): 128 µg/mL | MIC alone ([23]; K. pneumo JMI 2699, VIM-1, CTX-M3): >512 µg/mL | MIC alone ([23]; K. pneumo JMI 2699, enzyme VIM-1, CTX-M3): >512 µg/mL | MIC alone ([24]; K. pneumo JMI 4109, SHV-1, SHV-12): 8 µg/mL | MIC alone ([24]; K. pneumo JMI 4109, enzyme SHV-1, SHV-12): 8 µg/mL
